≈ marks a conversion by molar mass, not a printed value.
Test system: 139
Test: MIC, agar incorporation method
Type: cell-based
Method in brief: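 Doubling dilutions of compound in DMSO were incorporated into Mueller-Hinton agar; 10^4 CFU/spot inoculated from 0.5 McFarland suspensions and incubated 18 h (24 h for MRSN studies). MIC = lowest concentration without visible growth; valid only when ATCC reference strains gave in-range MICs.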

Which MIC does the source give for CN[C@H](CC(C)C)C(=O)N[C@H]1C(=O)N[C@@H](CC(N)=O)C(=O)N[C@H]2C(=O)N[C@H]3C(=O)N[C@H](C(=O)N[C@H](C(=O)O)c4cc(O)cc(O)c4-c4cc3ccc4O)[C@H](O)c3ccc(c(Cl)c3)Oc3cc2cc(c3O[C@@H]2O[C@H](CO)[C@@H](O)[C@H](O)[C@H]2O[C@H]2C[C@](C)(N)[C@H](O)[C@H](C)O2)Oc2ccc(cc2Cl)[C@H]1O [Vancomycin, reference compound] here?
Its MIC is over 16 µg/mL.

For CC(=O)NC[C@H]1CN(c2ccc(N3CCOCC3)c(F)c2)C(=O)O1 [Linezolid, reference compound], which MIC is on record?
Its MIC is 1 µg/mL (≈ 2.96 µM).

How did the MIC turn out when CC(=O)NC[C@H]1CN(c2ccc(N3CCN(c4ccc([N+](=O)[O-])s4)CC3)c(F)c2)C(=O)O1 [Compound No. 1, (S)—N-[[3-[3-Fluoro-4-[4-(5-nitro-2-thienyl)-1-piperazinyl]phenyl]-2-oxo-5-oxazolidinyl]methyl]acetamide] was run?
Its MIC is 0.25 µg/mL (≈ 0.539 µM).

For CC(=O)NC[C@H]1CN(c2ccc(N3CCN(c4ccc(C=O)o4)CC3)c(F)c2)C(=O)O1 [Compound No. 3, (S)—N-[[3-[3-Fluoro-4-[4-(5-formyl-2-furyl)-1-piperazinyl]phenyl]-2-oxo-5-oxazolidinyl]methyl]acetamide], which MIC is on record?
The MIC was 0.5 µg/mL (≈ 1.16 µM).

From US20060293307A1, “Oxazolidinone derivatives as antimicrobials” (priority 2002, published 2006)
